Reference: patent US6656962B2, “Use of amino-isoxazolidone compounds for improvement of lexical priming” (Pharmacia Corporation, priority 1994, dated 2003)

Columns and labels:
[1] = molecular target: T1, NMDA receptor complex ([3H]TCP binding) (Rattus norvegicus, UniProt P35439); assay: Assay B: TCP Modulation Assay (stimulation of [3H]TCP binding to synaptic plasma membranes); format: biochemical
T1 construct: Triton X-100 washed synaptic plasma membranes (SPM) prepared from rat forebrain; from tissue; host or cells: rat forebrain synaptic plasma membranes (male Sprague-Dawley, 30-45 days old), Triton X-100 washed
Method: [3H]TCP binding was performed using Triton X-100 washed synaptic plasma membranes (SPM) prepared from rat forebrain (30-45 day old, male SpragueDawley; Sasco, St. Charles, Mo.) as described previously [J. W. Thomas, W. F. Hood, J. B. Monahan, P. C. Contreras and T. L. O'Donohue, Brain Res., 442, 396-398 (1988)]. […] The samples were then filtered through glass fiber filters (Schleicher and Schuell #32) which were pretreated with 0.05% (v/v) polyethylenimine. The filters were washed and the radioactivity quantitated by liquid scintillation spectrometry. […] The EC50 values for the stimulation of [3H]TCP binding were determined using a four parameter logistic regression analysis.

[2] = test system: implicit memory (priming) in Alzheimer patients; assay: Assay C: Implicit Memory Paradigm (word identification test, priming) in Alzheimer patients; format: in vivo, human; details: 15 mg twice daily
Text: In this test, subjects identify words presented in a visually degraded or masked format in which only parts of each letter are shown. Subjects view several lists of these degraded words over a period of three days, some of which are repeated from day-to-day and some that are new. Learning, or what is referred to as “priming”, is shown on this test when subjects identify a larger number of repeated or old words than new words. […] The diagnosis of probable Alzheimer's disease was made according to the criteria defined by the National Institute on Neurological Disorders and Stroke Work Group [G. McKhann et al, Neurology, 34, 939-944 (1984)]. This diagnosis was based on clinical evaluation that included neuropsychological assessment, laboratory blood screening, neurolgical examination, and either a CT or MRI scan. The criteria for entry into the study was Mini-mental State Examination score between 12 and 24 inclusive [M. Folstein et al, J. Psych. Res., 12, 189-198 (1975)], Global Deterioration Scale score between 3 and 5 inclusive [B. Reisberg et al, Am. J. Psych., 139, 1136-1139 (1982)], Modified […], ischemic score of 4 or less [G. W. Small et al, J. Clin. Psych., 46, 514-517 […]], and Hamilton Psychiatric Rating Scale for Depression score of 17 or less [M. Hamilton, Neurology and Neurosurgery, 23, 56-62 (1960)]. Patients with medical, neurological, or psychiatric illnesses other than Alzheimer's disease that could account for the abnormal mental status were excluded. […] The eligibility of patients was assessed during a 28-day period before the study began. […] All unused medication was returned and counted to check for compliance in taking the drug. […] The total increase in priming was calculated by first deriving the amount of priming that occurred on each trial (i.e., difference in the proportion of old and new words identified). […] Priming is not calculated on trial 1 because from the patient's perspective there are no old words on trial 1; the words begin to repeat on the second trial.

[3] = test system: recognition memory and attention in Alzheimer patients; details: Alzheimer's disease patients, Searle Protocol NC6-93-06-009; cited from earlier work
[4] = oral, tenth week of treatment, Alzheimer patients

SMILES | effect on glycine stimulation of [3H]TCP binding ([1]; in the presence of glycine (0.1-0.6 μM)) | patients who improved their priming scores from trial 2 to trial 9 [2, 4] | total increase in priming vs placebo (post-hoc Scheffe test) [2, 4] | linear trend in priming across trials ([2]; trials 2 to 9, Alzheimer patients) | performance on recognition memory and attentional tests [3] | Kd ([1]; basal conditions)
NC1CONC1=O (single isomer, unassigned) [D-cycloserine, 4-amino-3-isoxazolidone] | reduces the maximal level of glycine stimulation | 68% | significant difference in performance | significant linear trend across trials | did not improve performance | 
c1csc(C2(N3CCCCC3)CCCCC2)c1 [[3H]TCP] |  |  |  |  |  | 44 nM
